Values belong to the compound of their own block, whether it stands above or below them.
Assays:
[1] = target: T1, LXA4 specific binding sites of differentiated HL-60 cells (Homo sapiens, UniProt P25090); experiment: 3H-LXA4 specific binding to differentiated HL-60 cells
T1 construct: endogenous in cells; host or cells: HL-60 cells differentiated with DMSO, retinoic acid or PMA; intact cells
T1 sequence (P25090 1-351): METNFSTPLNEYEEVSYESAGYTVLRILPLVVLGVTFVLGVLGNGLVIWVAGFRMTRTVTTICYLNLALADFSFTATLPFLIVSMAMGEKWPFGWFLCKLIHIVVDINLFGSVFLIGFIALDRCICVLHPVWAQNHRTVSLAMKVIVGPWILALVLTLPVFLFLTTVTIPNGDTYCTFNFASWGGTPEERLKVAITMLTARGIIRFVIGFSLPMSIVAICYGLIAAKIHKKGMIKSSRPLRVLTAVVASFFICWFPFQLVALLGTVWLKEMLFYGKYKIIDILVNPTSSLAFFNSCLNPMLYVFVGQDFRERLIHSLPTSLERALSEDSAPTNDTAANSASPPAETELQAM
Description: Preparation of [11,12-^3H]LXA4. Tritiation of 11,12-acetylenic LXA4 methyl ester was carried out under a custom tritiation service (NET-259:92-2326) by New England Nuclear (Boston, Mass.). Briefly, 11,12-acetylene methyl ester was characterized by UV absorbance and reverse-phase HPLC as in (Nicolaou, K. C. et al. (1985) J. Am. Chem. Soc. 107:7515) and exposed to tritium atmosphere in methylene chloride at room temperature. This incubation was stirred in the presence of Lindlar catalyst (1.0 mg from Fluka Chemicals) for˜1 h. The resulting mixture was stored in methanol and isolated using RP-HPLC. Tritiated products were chromatographed as methyl esters utilizing a gradient HPLC system equipped with a photodiode array rapid spectral detector (Serhan, C. N., Methods in Enzymology: Arachidonate Related Lipid Mediators, in Murphy R. C., Fitzpatrick, F. (eds.), vol. 187. Orlando, Fla., Academic, (1990), p. 167). This mixture contained both [11,12-^3H]LXA4 and [11,12-^3H]-11-trans-LXA4 methyl esters (˜1:3 ratio) as determined by coelution with synthetic standards. After RP-HPLC, fractions containing [11,12-^3H]LXA4 were collected, and extracted into ethyl acetate. The free acid was prepared by LiOH saponification (Fiore, S. et al. (1992) J. Biol. Chem. 267:16168). Material from these fractions, when injected into UV-electrochemical detection HPLC, gave greater than 90% of radioactivity associated with a tetraene-containing product that coeluted with synthetic LXA4. Materials that eluted with the retention time of authentic LXA4 in two HPLC systems were taken for binding experiments. The specific activity calculated for [11,12-^3H]LXA4 was 40.5 Ci/mmole.
Cell cultures and differentiation. HL-60 cells were seeded in RPMI medium supplemented with 100 U/ml penicillin, 100 μg/ml streptomycin, and 10% fetal calf serum (Hyclone, Logan, Utah), incubated at 37° C. with 5% CO2 atmosphere in 250 ml flasks. Individual flasks containing ˜[…] next received dimethyl sulfoxide (DMSO) (1.12% v/v, 120 h) or retinoic acid (RA) (1 μM, 120 h) or phorbol myristate acetate (PMA) (20 nM, 48 h). Before performing binding assays, cells were washed twice in phosphate buffered saline (PBS), Ca^2+- and Mg^2+-free, enumerated and suspended at 20×10^6 cells/ml in Tris buffer (10 mM), pH 7.4 (Fiore, S. et al.(1992) J. Biol. Chem. 267:16168). Nitro blue tetrazolium reduction was performed to monitor induction of polymorphonuclear phenotype as in (Imaizumi, M. and Breitman, T. R. (1986) Blood 67:1273), and cell adherence was determined for induction of macrophage-like phenotype (Collins, S. J. (1987) Blood 70:1273). Human umbilical vein endothelial cells (HUVEC) maintained in culture third passage were obtained from Dr. M. Gimbrone (Brigham and Women's Hospital Department of Pathology).
Ligand binding. ^3H-LXA4 and ^3H-LTB4 binding was performed essentially as in Fiore, S. et al.(1992) J. Biol. Chem. 267:16168. After suspending cells in Tris buffer 10 mM (pH 7.4, Ca^2+ 2.5 mM, Mg^2+ 1.2 mM), aliquots (0.5 ml) were incubated (20 min at 4° C.) with ^3H- ligands alone (0.3 nM) or in the presence of increasing concentrations of homoligands or other compounds (3-300 nM). The incubations were rapidly centrifuged (60 sec, 12,000 g) on silicon oil (d=1.028), and cell-associated radioactivity was determined by liquid scintillation counting (Wallac 1409, Pharmacia, Piscataway, N.J.). Binding experiments with HUVEC cells were performed in 12 well plates with 3.5×10^5 cells/well. After 10 min, wells were washed twice with PBS and cell-associated label was recovered by adding glacial acetic acid (0.5 ml). Results obtained from these assays were submitted for further analysis using the Ligand program (Elsevier-Biosoft, Cambridge, UK).

[2] = target: HUVEC (putative LTD4 receptors); experiment: 3H-LXA4 specific binding to HUVEC; set-up: species or system human
Description: Cell cultures and differentiation. HL-60 cells were seeded in RPMI medium supplemented with 100 U/ml penicillin, 100 μg/ml streptomycin, and 10% fetal calf serum (Hyclone, Logan, Utah), incubated at 37° C. with 5% CO2 atmosphere in 250 ml flasks. […] Human umbilical vein endothelial cells (HUVEC) maintained in culture third passage were obtained from Dr. M. Gimbrone (Brigham and Women's Hospital Department of Pathology).
Binding experiments with HUVEC cells were performed in 12 well plates with 3.5×10^5 cells/well. After 10 min, wells were washed twice with PBS and cell-associated label was recovered by adding glacial acetic acid (0.5 ml). Results obtained from these assays were submitted for further analysis using the Ligand program (Elsevier-Biosoft, Cambridge, UK).

[3] = test system: A549 cells; experiment: 15-HETE generation by IL-1β-treated A549 cells; format: cell-based, human; details: permeabilized IL-1β-treated A549 cells, arachidonic acid 20 μM
Description: FIG. 3 is a graph showing the relative chiralities of 15-HETE triggered by ASA. A549 cells (10^7 cells per flask) were exposed to IL-1β (1 ng/ml) for 24 h, treated with vehicle (0.1% vol/vol ethanol) (□) or ASA (▪) for 20 min and then incubated (30 min, 37° C.) in HBSS containing arachidonic acid (20 μM) and A23187 (5 μM). Products were chromatographed by RP-HPLC (as in FIG. 1B) and the region containing 15-HETE was collected, extracted with chloroform and treated with diazomethane. Chiral analysis was performed with a Bakerbond DNBPG (see Methods for details). Results are representative of two separate experiments showing similar results.
In incubations involving permeabilized A549 cells (prepared by a rapid freeze-thaw cycle), IL-1β-treated (1 ng/ml, 24 h) A549 cells (1.5×10^6 cells/ml) were pretreated for 20 min with either vehicle (0.1% EtOH), ASA (500 (M; used throughout), 5 (M 17-ODYA, an inhibitor of cytochrome P450, (Muerhoff A. S., et al. (1989) Prostaglandin and fatty acid ω and (ω-1)-oxidation in rabbit lung: acetylenic fatty acid mechanism-based inactivators as specific inhibitors. J Biol.Chem. 244: 749-756.), or […] Rev 5901 isomer, a 5-LO inhibitor, subjected to two cycles of rapid freezing in a dry ice-acetone bath and thawing to room temperature (full cycle <20 min), and incubated with arachidonic acid ([…] for 20 min at 37° C. in 4 ml of DPBS^2+. In experiments involving radiolabeled arachidonic acid, incubations were initiated with the addition of [^3H]-arachidonic acid (0.25 (Ci/ml) plus unlabeled arachidonic acid ([…] for 20 min at 37° C.
For time-course experiments involving the generation of 15-HETE from endogenous sources (see FIG. 2B), intact A549 cells were exposed to IL-1β (1 ng/ml) for up to 48 h and then treated with vehicle (containing 0.1% EtOH) or ASA for 20 min followed by addition of ionophore A23187 (5 μM) in 4 ml of HBSS for 30 min at 37° C.
The monohydroxy eicosanoids (i. e. 5-, 12- and 15-HETE) from A549 cells were analyzed using a Ultrasphere-ODS column (5 μm, 4.6 mm×25 cm) (Beckman Instruments, Fullerton, Calif.) was eluted with MeOH/H2O/acetic acid (65:35:0.01; v/v/v) as phase one (t0-20 min), and a linear gradient with MeOH/acetic acid (99.9:0.1, v/v) as phase two (20-45 min) at a flow rate of 1.0 ml/min. The R- and S-enantiomers of 15-HETE were resolved and identified using a chiral HPLC system similar to that reported by Hawkins et al. (1988). […] When indicated, generation of 15-HETE from endogenous sources was monitored by radioimmunoassay (RIA). […]

- Kd ([1]; isotherm binding, 4° C., 10 min, 0.1-30 nM): 0.6 ± 0.3 nM
- Kd [2]: 11 ± 2.6 nM
Structure (SMILES): [3H]C(/C=C/C=C/[C@@H](O)[C@@H](O)CCCC(=O)O)=C([3H])/C=C/[C@@H](O)CCCCC [[11,12-^3H]LXA4]

- competition of specific 3H-LXA4 binding [2]: effective in competing
Structure (SMILES): CCCCC/C=C\C\C=C/C=C/C=C/[C@@H](SC[C@H](N)C(=O)NCC(=O)O)[C@@H](O)CCCC(=O)O [LTD4]

- displacement of 3H-LXA4 specific binding ([1]; competition, competitor 300 nM where printed): did not displace
- competition of specific 3H-LXA4 binding [2]: effective in competing
Structure (SMILES): O=C(O)CCS[C@H](c1ccccc1CCCCCCCCc1ccccc1)[C@@H](O)C(=O)O [SKF 104353]

Structure (SMILES): C#CCCCCCCCCCCCCCCCC(=O)O [17-ODYA, 17-octadecaynoic acid]
- reduction in 15-HETE [3]: ~50%

— US20030134901A1, “Lipoxin compounds and their use in treating cell proliferative disorders” (priority 1993, published 2003)
